Assay results: ChEMBL document CHEMBL1201862, “PubChem BioAssay data set” (2004)
Blank lines part the entries; values can stand above or below the molecule they belong to. Calls of active or inactive are those of the source.

Columns and labels:
cells [1] = assay type: functional, cell-based
cells [2] = assay type: functional, cell-based; remark: listed apart in the source
[3] = target: T1, RNA-binding protein pos-1 (Caenorhabditis elegans, UniProt G5EF15); assay: disruptors of C. elegans POS-1 RNA interaction – biochemical, fluorescence polarization, dose response (AID 1964);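 also: purified POS-1 fused to maltose binding protein made in E. coli; potency of compounds blocking POS-1 binding to fluorescent RNA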
T1 sequence (G5EF15 whole entry): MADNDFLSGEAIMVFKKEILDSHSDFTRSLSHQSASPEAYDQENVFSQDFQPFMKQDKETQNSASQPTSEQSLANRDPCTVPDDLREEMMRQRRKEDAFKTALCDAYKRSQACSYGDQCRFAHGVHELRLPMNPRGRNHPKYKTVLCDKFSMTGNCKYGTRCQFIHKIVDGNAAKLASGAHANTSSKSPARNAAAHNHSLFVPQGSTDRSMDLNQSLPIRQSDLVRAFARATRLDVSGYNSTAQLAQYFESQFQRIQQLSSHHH

[4] = target: T2, Zinc finger protein mex-5 (Caenorhabditis elegans, UniProt Q9XUB2); assay: potency of MEX-5 RNA-binding blockers – biochemical, C. elegans, fluorescence polarization, dose response (AID 1960)
T2 sequence (Q9XUB2 whole entry): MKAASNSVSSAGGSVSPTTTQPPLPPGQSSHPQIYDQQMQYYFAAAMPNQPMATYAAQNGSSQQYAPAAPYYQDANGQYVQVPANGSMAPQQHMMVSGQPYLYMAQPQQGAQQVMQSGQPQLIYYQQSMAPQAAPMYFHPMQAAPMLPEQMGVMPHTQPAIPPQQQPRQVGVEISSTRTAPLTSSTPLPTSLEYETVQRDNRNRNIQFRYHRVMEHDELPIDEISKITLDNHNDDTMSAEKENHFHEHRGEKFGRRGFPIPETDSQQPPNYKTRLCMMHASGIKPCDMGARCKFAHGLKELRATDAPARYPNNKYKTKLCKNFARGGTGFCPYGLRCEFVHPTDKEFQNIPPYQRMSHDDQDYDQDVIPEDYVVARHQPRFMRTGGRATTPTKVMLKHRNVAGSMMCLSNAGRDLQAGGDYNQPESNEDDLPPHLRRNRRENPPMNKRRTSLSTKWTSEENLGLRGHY

[5] = target: T3, Ubiquitin-conjugating enzyme E2 N (Homo sapiens, UniProt P61088); assay type: functional;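 also: Dose-response confirmation in a TR-FRET assay detecting UBC13-driven polyubiquitin chain formation, inhibition measured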
T3 sequence (P61088 whole entry): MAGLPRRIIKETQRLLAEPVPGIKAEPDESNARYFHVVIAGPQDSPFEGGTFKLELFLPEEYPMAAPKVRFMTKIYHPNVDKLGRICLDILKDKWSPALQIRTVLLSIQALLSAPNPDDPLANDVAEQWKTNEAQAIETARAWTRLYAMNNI

[6] = target: T4, High affinity choline transporter 1 (Homo sapiens, UniProt Q9GZV3); assay: human choline transporter blockers, potency – cell-based, 5-point CRC, membrane potential dye, dose response (AID 504840); assay type: functional
T4 sequence (Q9GZV3 whole entry): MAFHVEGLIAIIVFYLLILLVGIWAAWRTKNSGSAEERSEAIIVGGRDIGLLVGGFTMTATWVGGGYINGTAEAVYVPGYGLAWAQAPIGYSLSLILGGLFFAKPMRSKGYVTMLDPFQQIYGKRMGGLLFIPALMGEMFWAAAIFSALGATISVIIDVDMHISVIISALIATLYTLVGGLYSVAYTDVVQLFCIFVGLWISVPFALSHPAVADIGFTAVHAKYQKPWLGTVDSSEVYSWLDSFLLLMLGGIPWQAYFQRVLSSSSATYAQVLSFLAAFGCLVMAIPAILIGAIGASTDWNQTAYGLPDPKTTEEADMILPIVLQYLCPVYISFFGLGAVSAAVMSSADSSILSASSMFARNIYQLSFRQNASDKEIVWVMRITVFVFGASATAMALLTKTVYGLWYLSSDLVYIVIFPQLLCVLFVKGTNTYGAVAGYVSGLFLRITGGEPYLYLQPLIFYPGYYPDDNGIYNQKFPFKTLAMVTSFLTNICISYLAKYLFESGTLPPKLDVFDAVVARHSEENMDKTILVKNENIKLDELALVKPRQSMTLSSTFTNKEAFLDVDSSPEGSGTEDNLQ

[7] = target: T5, Heat shock factor protein 1 (Mus musculus, UniProt P38532); assay: decrease of HSF1-responsive luciferase luminescence – cell-based, NIH3T3, dose retest, confirmation (AID 2382); assay type: functional;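 also: NIH3T3 fibroblasts with HSF1-driven luciferase reporter stressed by proteasome inhibitor MG132; luminescence from HSF1-driven luciferase expression after 8 hours of MG132 stress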
T5 sequence (P38532 whole entry): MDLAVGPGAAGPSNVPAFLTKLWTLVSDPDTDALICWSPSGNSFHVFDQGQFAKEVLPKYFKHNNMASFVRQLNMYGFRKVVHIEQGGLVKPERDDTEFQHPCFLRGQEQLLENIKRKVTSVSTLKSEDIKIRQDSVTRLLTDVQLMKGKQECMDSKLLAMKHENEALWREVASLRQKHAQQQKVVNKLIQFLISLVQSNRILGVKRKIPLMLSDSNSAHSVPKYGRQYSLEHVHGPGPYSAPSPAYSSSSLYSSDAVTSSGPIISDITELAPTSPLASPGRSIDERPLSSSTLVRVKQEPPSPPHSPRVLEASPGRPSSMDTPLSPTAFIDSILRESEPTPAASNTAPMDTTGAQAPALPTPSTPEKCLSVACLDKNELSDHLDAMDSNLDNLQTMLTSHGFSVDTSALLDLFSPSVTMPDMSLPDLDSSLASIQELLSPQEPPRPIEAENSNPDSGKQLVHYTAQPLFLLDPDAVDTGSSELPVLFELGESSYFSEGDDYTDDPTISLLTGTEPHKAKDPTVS

[8] = reduction of Shn3 3'UTR-driven luciferase in osteoblasts – cell-based, Clone20 osteoblasts, firefly luciferase, cherry-picked, dose response (AID 624132); assay type: functional;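 also: firefly luciferase luminescence from reporter carrying the Shn3 3'UTR in osteoblasts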
[9] = non-specific 3'UTR reporter inhibition in Clone20-Shn3RL – cell-based, Renilla luciferase, cherry-picked, counter-screen for Shn3 inhibitor project, dose response (AID 624133); assay type: functional
[10] = intracellular Trypanosoma cruzi inhibitors in host cells – cell-based, plate reader, cherry-pick samples, set 3, dose response (AID 651818); assay type: functional;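 also: compounds incubated with infected cells for about four days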

EC50 [3]: 175 µM (active) | EC50 [4]: > 300 µM (not active)
SMILES: Cc1ccc(CN(C)C(=O)CC2C(=O)NCCN2CC2CCCCC2)cc1 (configuration not stated)

IC50 [5]: > 20 µM (inactive)
SMILES: COc1cccc(-c2nn(C)c3sc(C(=O)NCCCN(C)Cc4ccccc4)cc23)c1

IC50 [6]: 12.3 µM (active)
SMILES: C/C=C(\C)CN1CCC(Oc2cccc(C(=O)NCc3ccccn3)c2)CC1

EC50 [3]: > 300 µM (not active) | EC50 [4]: > 300 µM (not active)
SMILES: CCOC(=O)c1ccc(-n2c(CCC(=O)O)ccc2-c2ccc(F)cc2)cc1

IC50 [6]: 15.1 µM (active)
SMILES: CCOc1ccc(/C=C2\SC(=S)N(NC(=O)c3ccncc3)C2=O)cc1OC

IC50 [5]: > 20 µM (inactive)
SMILES: O=C(COC(=O)CCCCCNC1=NS(=O)(=O)c2ccccc21)Nc1ccc(Cl)c(Cl)c1

IC50 [6]: 13.8 µM (active)
SMILES: Cc1ccc2c(c1)N(CCCC(=O)NCC1COc3ccccc3O1)C(=O)CO2 (configuration not stated)

IC50 [6]: 4.79 µM (active)
SMILES: CCOC(=O)Cc1csc(NS(=O)(=O)c2ccc3c4c(cccc24)C(=O)N3CC)n1

IC50 [5]: > 20 µM (inactive)
SMILES: CN(C)S(=O)(=O)c1cccc(COc2ncnc3c(Cl)cc(Cl)cc23)c1

EC50 [7]: > 195 µM (not active)
SMILES: C=CCOc1ccc(C(c2c(C)n(C)n(-c3ccccc3)c2=O)c2c(C)n(C)n(-c3ccccc3)c2=O)cc1

EC50 [3]: > 300 µM (not active) | EC50 [4]: > 300 µM (not active)
SMILES: COc1ccc(CCC(=O)Nc2cccc(Cl)c2)cc1

IC50 [5]: > 20 µM (inactive)
SMILES: COc1ccccc1NC(=O)CSc1nc2ccccc2n1C(C)=O

IC50 [6]: 7.09 µM (active)
SMILES: O=C(Nc1ccccc1C(=O)NCCCN1CCOCC1)c1ccc(F)cc1

EC50 [3]: > 300 µM (not active) | EC50 [4]: 45.5 µM (active)
SMILES: CCNC(=O)c1cc2c(=O)n3cccc(C)c3nc2n(Cc2ccc(C)cc2)c1=N

EC50 [7]: > 195 µM (not active)
SMILES: CNC(=O)Cn1nc(C)c2ccccc2c1=O

EC50 [7]: > 195 µM (not active)
SMILES: CCc1ccc(OC(C)C(=O)N(Cc2ccco2)C2CCS(=O)(=O)C2)cc1 (configuration not stated)

IC50 [5]: > 20 µM (inactive)
SMILES: COc1ccccc1NS(=O)(=O)c1cccc(C(=O)NNC(=O)c2ccc(Cl)nc2)c1

IC50 [5]: > 20 µM (inactive)
SMILES: CCOc1ccccc1NC(=O)COc1cccnc1[N+](=O)[O-]

More lines, now with the values behind:

SMILES: COc1ccccc1CC(=N)NO
EC50 (cells [1]): > 350 µM (not active) | EC50 (cells [2]): > 350 µM (not active)

SMILES: CC(C)c1cc(-c2cc(C(=O)NCc3ccccc3)on2)nc(NC2CCCC2)n1
EC50 (cells [1]): > 350 µM (not active) | EC50 (cells [2]): > 350 µM (not active)

SMILES: COc1ccc(Cc2nnc(SCC(=O)NC3CCCCC3)n2C)cc1
EC50 (cells [1]): > 350 µM (not active) | EC50 (cells [2]): > 350 µM (not active)

SMILES: NC(=S)N=Nc1c(O)n(CCCl)c2ccc(Cl)cc12
IC50 [5]: > 20 µM (inactive)

SMILES: Cc1ccc(C(=O)N[C@@H](C)CN2C3=NC[C@H](Cc4ccccc4)N3C[C@H]2Cc2ccc(O)cc2)cc1Br
IC50 [5]: > 20 µM (inactive)

SMILES: Cc1noc(C)c1CSc1ncnc2sc3c(c12)CCC3
EC50 [7]: > 195 µM (not active)

SMILES: CCOc1ccc(NC(=O)CC2C(=O)Nc3ccccc3N2C(=O)c2ccccc2)cc1 (configuration not stated)
EC50 (cells [1]): > 350 µM (not active) | EC50 (cells [2]): > 350 µM (not active)

SMILES: CCN1C(=O)/C(=C\N(C)C)NC1=S
EC50 [3]: 22.6 µM (active) | EC50 [4]: 154 µM (inconclusive)

SMILES: CCCCc1nnc(NC(=O)c2ccc3nc(O)c(O)nc3c2)s1
EC50 (cells [1]): > 350 µM (not active) | EC50 (cells [2]): > 350 µM (not active)

SMILES: CCOC(=O)C1=C(C)OC(N)=C(C#N)C1c1ccc(O)c(OC)c1 (configuration not stated)
EC50 [3]: > 300 µM (not active) | EC50 [4]: > 300 µM (not active)

SMILES: CCOC(=O)C(=NC1CCS(=O)(=O)C1)NNc1cc(Cl)ccc1Cl (configuration not stated)
IC50 [5]: > 20 µM (inactive)

SMILES: O=C(Nc1ccc(S(=O)(=O)N2CCOCC2)cc1)c1ccc(Cl)cc1Cl
EC50 [7]: > 195 µM (not active) | IC50 [6]: 13.8 µM (active)

SMILES: Cc1noc(C)c1COC(=O)C1CC(O)CN1S(=O)(=O)c1ccc(Cl)cc1 (configuration not stated)
EC50 (cells [1]): > 350 µM (not active) | EC50 (cells [2]): > 350 µM (not active)

SMILES: CCCCNc1cccc2c1S(=O)(=O)N(CCCC)CC(COCc1ccccc1)O2 (configuration not stated)
AC50 [8]: 8.93 µM (active) | AC50 [9]: 31.7 µM (active)

SMILES: COc1ccc(S(=O)(=O)Nc2ccc3c(c2)C(=O)N([C@H](C)CO)C[C@H](C)[C@@H](CN(C)Cc2ccc(-c4ccccc4)cc2)O3)cc1
AC50 [10]: 3.32 µM (active)

SMILES: C[C@@H]1CCCCO[C@@H](CN(C)CC2CCCCC2)[C@@H](C)CN([C@H](C)CO)C(=O)c2cc(NC(=O)Nc3ccc4c(c3)OCO4)ccc2O1
AC50 [10]: 0.75 µM (active)

SMILES: C[C@H]1CN([C@@H](C)CO)C(=O)c2cccc(NC(=O)c3ccc(-c4nccs4)cc3)c2O[C@@H]1CN(C)Cc1ccc(-c2ccccc2)cc1
AC50 [10]: 2.93 µM (active)

SMILES: C[C@@H]1CN([C@@H](C)CO)C(=O)c2cccc(NS(=O)(=O)c3ccc(F)cc3)c2O[C@@H]1CN(C)Cc1ccc(Oc2ccccc2)cc1
AC50 [10]: 7.95 µM (active)

SMILES: C[C@@H]1CCCCO[C@H](CN(C)C(=O)NC2CCCCC2)[C@@H](C)CN([C@H](C)CO)C(=O)c2cc(NC(=O)Nc3ccc(C(F)(F)F)cc3)ccc2O1
AC50 [10]: 4.85 µM (active)

SMILES: C[C@@H]1CN([C@H](C)CO)C(=O)Cc2cc(NC(=O)Nc3ccc(C(F)(F)F)cc3)ccc2O[C@@H]1CN(C)Cc1ccc(-c2ccccc2)cc1
AC50 [10]: 3.22 µM (active)

SMILES: C[C@@H]1CN([C@H](C)CO)C(=O)Cc2cc(NC(=O)Nc3ccc(F)cc3)ccc2O[C@@H]1CN(C)Cc1ccc(Oc2ccccc2)cc1
AC50 [10]: 2.71 µM (active)

SMILES: COc1ccc(S(=O)(=O)N(C)C[C@@H]2Oc3c(NC(=O)c4nc5ccccc5s4)cccc3C(=O)N([C@H](C)CO)C[C@@H]2C)cc1
AC50 [10]: 1.17 µM (active)

SMILES: C[C@@H]1CN([C@H](C)CO)C(=O)Cc2cc(NS(=O)(=O)c3ccccc3)ccc2O[C@@H]1CN(C)Cc1ccc(C(=O)Nc2ccccc2N)cc1
AC50 [10]: 3.75 µM (active)

SMILES: C[C@H]1CN([C@@H](C)CO)C(=O)c2cccc(NC(=O)C3CCCCC3)c2O[C@H]1CN(C)Cc1ccc(C(=O)Nc2ccccc2N)cc1
AC50 [10]: 3.38 µM (active)

SMILES: C[C@@H]1CCCCO[C@@H](CN(C)Cc2ccc(C(F)(F)F)cc2)[C@@H](C)CN([C@H](C)CO)C(=O)c2cc(NC(=O)C3CCCCC3)ccc2O1
AC50 [10]: 6.38 µM (active)
